Patent publication US20040259806A1 (priority 2001, published 2004)

Legend:
peritoneal macrophages = assay: Phagocytosis and killing of Saccharomyces cerevisiae by peritoneal macrophages of treated infected mice; assay type: in vivo
Experimental: In order to study phagocytosis, peritoneal macrophages were plated at a concentration of 10^6 cells per Petri dish and media including 10^7 Saccharomyces cerevisiae cells, opsonized by mice serum was added. Results were evaluated using the Mann-Whitney test. Phagocytic activity was calculated after determination of percentage of macrophages involved in phagocytes. The phagocytic index was determined by calculating the average number of yeast phagocytosed per one cell. Killing activity was resolved by the number of yeast digested by macrophages after 1.5 h of incubation. Finally, the killing index was determined as follows: [formula]

IL-2 = IL-2 production by Con A stimulated spleen cells (CTLL-2 assay); assay type: in vivo, mice
Experimental: In RPMI-1640, spleen cells were diluted to a concentration of 10^7/ml with 10% fetal calf serum, 2 mM L-glutamine and 80 ìg/ml gentamycin. A 100 ìl cell suspension was added to each well of a 96-well culture plate and cytokine production was induced by Con A at a final concentration of 2.5 ìg/ml. A control well included RPMI-1640. For 24 hours, cells were incubated at 37° C. and humidified in 5% CO2. Following incubation, […] of supernatant was removed from each well and stored at −70° C.
In order to determine the IL-2 concentration in cell culture supernatants, the CTLL-2 IL-2 dependent cell line was used. CTLL-IL-2 cells were washed twice in RPMI-1640 and counted with a Goriaev hemocytometer. Supernatants were diluted in 96-well culture plates at dilutions of 1:5, 1:15, 1:45 and 1:135 in a volume of 100 il. IL-2 standard dilutions were also prepared. Cells were diluted to 2×10^5/ml in RPMI-1640 with 10% inactivated fetal calf serum, 2 mM L-glutamine, 80 ìg/ml gentamycin. The 100 ìl suspension was added to each well of the culture plate and incubated for 48 h at 37° C. in 5% CO2 humidity. Ten ìl of 5 i Ci/ml ^3H-thymidine was added to each well 16 h before the end of incubation. Following incubation, the cells were harvested on filters through the use of a semi-automated harvester and samples were counted in a liquid scintillation counter.

tuberculosis = assay: SCV-07 therapy with continued traditional antituberculosis therapy in a patient (Example 2); assay type: in vivo, human
Excerpt: A patient was admitted to the hospital with infiltrative tuberculosis, destructive phase in the upper lobe and 6th segment of the right lung and 4-5th segments of the left lung. Prior to SCV-07 therapy, symptoms of bacterial intoxication, dyspnea and rales above the damaged lobes were present. […] Large foci of lung destruction surrounded by perifocal inflammation were found in the lingual lobe of the left lung. […] During immunological response assays, a decrease of CD4+ and CD8+ subsets and low lymphocyte blasttransformation responses with PHA and PPD were detected.
After two months of traditional therapy a small improvement in the patient's condition was seen; however, the reoentgenological picture was without significant change and immune responses remained inhibited.
SCV-07 was injected intramuscularly at 0.1 mg, once per day, for 5 days with continued traditional antituberculosis therapy (isoniazid at 600 mg/day intravenously, pyrazinamid at 1500 mg/day per so, rifampicin at 450 mg/day per os, kanamycin at 1000 mg/day intramuscularly). The clinical improvement was significant. Sputum culture tests became negative, cavities closed and infiltrative foci resolved. […] A normal range is approximately 26-40%. […] Finally, the blasttransformation response with PHA increased from 29% to 40%. A normal level is approximately 50%.

spleen cells = assay: Spleen cell proliferation (Con A, LPS, tuberculin) from treated infected mice; assay type: in vivo
Experimental: Spleens from mice were harvested aseptically, homogenized in RPMI-1640 medium (Biolot, Russia) and filtered through two layers of sterile gauze. Erythrocytes were lysed in 0.83% percent ammonium chloride solution after centrifugation of the homogenate. Spleen cells were washed twice with RPMI-1640 with 2 mM L-glutamine and […] gentamycin (Sigma, St. Louis, Mo.), then counted using a Goriaev hemocytometer.
Spleen cells and thymic cells were isolated as described above. In vitro, thymic cells were diluted to 10^7/ml in RPMI-1640 with 2 mM L-glutamine, 80 ìg/ml gentamycin and 4% heat-inactivated fetal calf serum (Sigma, St. Louis, Mo.). Spleen cells were diluted to 3×10^6/ml in RPMI-1640 with 2 mM L-glutamine, 80 ìg/ml gentamycin and 20% inactivated fetal calf serum. 0.5 ìg/ml Concanavalin A (Con A, Sigma, St. Louis, Mo.) was used to stimulate thymic cell proliferation. For spleen cell proliferation, 0.5 ìg/ml Con A, 10 ìg/ml lipopolysaccharide (Sigma, St. Louis, Mo.), and 50 ìg/ml tuberculin purified protein derivative (PPD) were utilized. The assay was carried out in 96-well plates and cell cultures were incubated for 72 hours, or 96 hours if tuberculin was used, at 37° C. in humidified 5% CO2, then pulsed with 5 ìl Ci/ml ^3H-thymidine overnight (approximately 16 h) and harvested on filters using a semi-automated harvester (Titertek™, Flow Laboratories, Norway). Filters were dried and proliferation calculated by ^3H-thymidine incorporation by counting samples in a liquid scintillation counter (LKB 1217 Racketa, Wallace, Sweden). Data was expressed in impulses per minute.

blood leukocytes = assay type: in vivo, mice
[1] = SCV-07 im 0.1 mg once per day for 5 days with continued traditional therapy
[2] = 17 days after SCV-07 therapy, Groups 8 and 9 (0.01 ìg/kg ip and 1 ìg/kg po)

**Q.** What does the source list for `N[C@H](CCC(=O)N[C@@H](Cc1c[nH]c2ccccc12)C(=O)O)C(=O)O` [SCV-07, γ-D-glutamyl-L-tryptophan]?
**A.** macrophage killing (peritoneal macrophages; 24 days after treatment, Groups 6 and 7 (1.0 ìg/kg, 10 injections and 0.1 ìg/kg ip)): significantly improved; phagocytic activity (peritoneal macrophages; after 4 days, Group 7 (SCV-07 0.1 ìg/kg ip) compared to Group 3 (isoniazid control), p≦0.05, 64.2% in uninfected mice): 38.8%; phagocytic index (peritoneal macrophages; after 4 days, SCV-07 treatment): normalized; killing (peritoneal macrophages; after 4 days, SCV-07 versus control, p≦0.05): 244.4; killing and the killing index (peritoneal macrophages; after 17 days, Group 6 (1.0 ìg/kg ip, 10 injections)): significantly increased; phagocytic activity (peritoneal macrophages; after 17 days, Group 6 (1.0 ìg/kg ip, 10 injections) versus Group 3 (isoniazid control)): 60.4%; phagocytic index (peritoneal macrophages; after 17 days, Group 6 (1.0 ìg/kg ip, 10 injections) versus Group 3, p=0.05): 6.88 U; killing (peritoneal macrophages; ten days after therapy, Group 5 (1 ìg/kg, ip) compared to the control): significantly increased; ingestion and killing (peritoneal macrophages; ten days after therapy, Groups 8 and 9 (0.01 ìg/kg ip and 1 ìg/kg po)): tendency toward decreased; IL-2 production (IL-2; 4 days after therapy, Group 7 (0.1 ìg/kg ip) compared to Group 3 (isoniazid control), Con A stimulated spleen cells): 41.6±5.6 U/ml; IL-2 level (IL-2; 24 days after therapy, Group 6 (1 ìg/kg ip, 10 injections) and Group 7 (0.1 ìg/kg ip)): did not differ from uninfected mice; IL-2 production (IL-2; all treated groups, all time points after therapy): increase; Immunological responses (tuberculosis; [1]): close to normal; Sputum culture tests (tuberculosis; [1]): negative; cavities (tuberculosis; [1]): closed; infiltrative foci (tuberculosis; [1]): resolved; clinical improvement (tuberculosis; SCV-07 intramuscularly 0.1 mg once per day for 5 days with continued traditional therapy): significant; CD3+ lymphocytes (tuberculosis; post SCV-07, increased from 1.011×10^9/l): 1.441e+09 L⁻¹; CD8+ numbers (tuberculosis; post SCV-07, increased from 12%, normal range approximately 26-40%): 21%; blasttransformation response with PHA (tuberculosis; post SCV-07, increased from 29%, normal level approximately 50%): 40%; Lymphocyte functional abilities (tuberculosis; post SCV-07 treatment): markedly elevated; spleen cell proliferative response with LPS (spleen cells; after 24 days, Group 6 (1 ìg/kg, 10 injections ip)): did not differ from uninfected mice; spleen cell proliferative response with Con A (spleen cells; after 24 days, Groups 6 and 7 (1 ìg/kg, 10 injections ip and 0.1 ìg/kg ip)): did not differ from uninfected mice; spleen cell proliferative response to tuberculin (spleen cells; later than 4 days of therapy, Group 6 (1 ìg/kg ip, 10 injections)): significantly higher than the control; Significant changes in blood lymphocytes and neutrophilic granulocytes (blood leukocytes; 4 days after therapy): not observed; monocyte levels (blood leukocytes; 10 days after therapy, Groups 6, 7, 8 and 9 compared with Group 3, the isoniazid control): decrease; lymphocyte numbers (blood leukocytes; [2]): increase; percent of neutrophils (blood leukocytes; [2]): significant decrease
